Reference: article PMC3388911, “Structure of Leishmania major cysteine synthase” (Acta Crystallographica Section F: Structural Biology and …, 2012)
Where two headings read alike, the source gives them in different places. Where a SMILES comes first, the peptide text is derived from it. Where no end group is shown, it is not given here. The star is where a group is joined. Cbz = O=C(OCc1ccccc1)*

How the values were obtained:
[1] = target: T1, LmCS (L. major cysteine synthase) (Leishmania major, UniProt Q4Q159); assay: biochemical
T1 sequence (Q4Q159 1-333): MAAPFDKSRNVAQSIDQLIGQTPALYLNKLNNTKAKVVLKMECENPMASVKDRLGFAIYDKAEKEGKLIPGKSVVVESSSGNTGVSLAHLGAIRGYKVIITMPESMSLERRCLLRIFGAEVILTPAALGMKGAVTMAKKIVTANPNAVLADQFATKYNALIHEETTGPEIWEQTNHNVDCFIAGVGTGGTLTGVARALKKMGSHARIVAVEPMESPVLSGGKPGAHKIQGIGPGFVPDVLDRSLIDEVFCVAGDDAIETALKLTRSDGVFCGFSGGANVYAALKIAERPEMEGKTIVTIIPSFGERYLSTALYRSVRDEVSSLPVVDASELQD

[2] = target: T2, AtOAS-TL (A. thaliana O-acetylserine thiol-lyase) (Arabidopsis thaliana, UniProt P47998); conditions: read-out: AtOAS-TL IC50; 3 mM OAS, 2 mM sodium sulfide, pH 7.8, room temperature; values with ± are mean ± SD of three determinations, others single IC50 curve
T2 sequence (P47998 whole entry): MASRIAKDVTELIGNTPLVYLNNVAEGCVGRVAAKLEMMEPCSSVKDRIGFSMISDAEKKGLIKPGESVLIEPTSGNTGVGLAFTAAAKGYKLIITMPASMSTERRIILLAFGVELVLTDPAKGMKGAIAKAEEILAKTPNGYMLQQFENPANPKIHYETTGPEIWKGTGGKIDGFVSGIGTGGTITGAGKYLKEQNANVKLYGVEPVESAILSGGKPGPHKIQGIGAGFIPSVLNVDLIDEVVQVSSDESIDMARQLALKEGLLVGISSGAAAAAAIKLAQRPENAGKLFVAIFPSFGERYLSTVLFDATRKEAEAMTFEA

[3] = target: T2, AtOAS-TL (A. thaliana O-acetylserine thiol-lyase); assay: biochemical
[4] = system: Mycobacterium tuberculosis CS (OASS); conditions: ref Schnell et al., 2007; cited from earlier work
[5] = target: Arabidopsis thaliana O-acetylserine thiol-lyase (Arabidopsis thaliana) (UniProt P47998)
Chain of Arabidopsis thaliana O-acetylserine thiol-lyase (Arabidopsis thaliana) (P47998 whole entry): as above

[6] = target: T3, Leishmania major cysteine synthase, C-terminally His-tagged (biochemical analysis) (Leishmania major) (UniProt Q4Q159)
T3 sequence: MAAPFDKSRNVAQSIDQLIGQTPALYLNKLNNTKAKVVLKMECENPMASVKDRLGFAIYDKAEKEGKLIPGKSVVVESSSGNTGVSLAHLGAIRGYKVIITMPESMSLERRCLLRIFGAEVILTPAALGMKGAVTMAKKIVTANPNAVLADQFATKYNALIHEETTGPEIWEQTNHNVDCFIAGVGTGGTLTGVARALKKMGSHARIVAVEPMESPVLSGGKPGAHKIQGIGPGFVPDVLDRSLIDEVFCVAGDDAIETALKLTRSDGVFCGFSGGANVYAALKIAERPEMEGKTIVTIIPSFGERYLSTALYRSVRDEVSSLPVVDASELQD

[7] = target: Arabidopsis thaliana O-acetylserine thiol-lyase (Arabidopsis thaliana, UniProt P47998 1-322); assay: cell-based or functional assay
Chain of Arabidopsis thaliana O-acetylserine thiol-lyase (P47998 whole entry): as the sequence (P47998 whole entry) above

[8] = target: the molecule itself; assay: crystal structure; hanging drop at 293 K, 7.5% PGA-LM, 19% PEG 3350, 0.1 M Tris-HCl pH 7.8; P212121, dimer in the asymmetric unit; 1.8 Å; molecular replacement
[9] = LmCS IC50, 3 mM OAS, 2 mM sodium sulfide, pH 7.8, room temperature, values with ± are mean ± SD of three determinations, others single IC50 curve
[10] = 3 mM OAS, 2 mM sodium sulfide, pH 7.8, room temperature, values with ± are mean ± SD of three determinations, others single IC50 curve, read-out: LmCS IC50

## (γ-Glu)4
[1]; tested up to a concentration of 500 µM
  inhibition of LmCS: unable to detect any significant inhibition
[1]; tested up to a concentration of 500 µM, listed as D-glutamate tetrapeptide
  inhibition of LmCS: insignificant inhibitory activity

## CC[C@H](C)[C@H](NC(=O)OCc1ccccc1)C(=O)O [N-CBZ-L-isoleucine]
[1]
  IC50: 320 µM

## CC[C@H](C)[C@H](NC(=O)CNC(=O)[C@H](CO)NC(=O)CN)C(=O)O [GSGI] (H-GSGI-OH)
[1]; LmCS IC50, 3 mM OAS, 2 mM sodium sulfide
  IC50: ~1500 µM
[1]; [9]
  IC50: 1500 µM
[2]
  IC50: ≤ 2 mM

## CC[C@H](C)[C@H](NC(=O)[C@@H](NC(=O)[C@H](Cc1ccc(O)cc1)NC(=O)[C@@H](N)CC(=O)O)C(C)C)C(=O)O [DYVI] (H-DYVI-OH)
[1]
  Ki: 4 µM
[1]; [9]
  IC50: 7 ± 1 µM

## EGDGSGI [EGDGSGI]
[3]
  IC50: 240 µM
[1]; [9]
  IC50: 270 ± 70 µM

## DGSGI [DGSGI]
[3]
  IC50: 170 µM
[1]; [9]
  IC50: 620 ± 50 µM

## CC[C@H](C)[C@H](N)C(=O)O [L-Isoleucine]
[1]; [10]
  IC50: > 4000 µM
[1]; at 4 mM
  inhibition of LmCS: no activity

## DFSI
[4]
  type of inhibition of M. tuberculosis OASS: competitive inhibitor

## CC[C@H](C)[C@H](NC(=O)[C@@H](NC(=O)OCc1ccccc1)C(C)C)C(=O)O [N-CBZ-L-valine-isoleucine] (Cbz-Val-Ile-OH)
[1]
  IC50: 1410 µM

## CC[C@H](C)[C@H](NC(=O)Cc1c[nH]c2ccccc12)C(=O)O [N-3-Indolylacetyl-L-isoleucine]
[1]; [10]
  IC50: 260 µM

B1: EGDGSGI, Leishmania SAT C-terminal heptapeptide (peptide)
peptide: EGDGSGI
[5]
  IC50 of inhibition of cysteine synthase activity (cysteine production; 3 mM OAS, 2 mM sodium sulfide); single IC50 curve: 240 µM
[6]
  IC50 of inhibition of cysteine synthase activity (cysteine production; 3 mM OAS, 2 mM sodium sulfide): 270 µM

B2: DYVI, peptide based on the C-terminus of A. thaliana serine acetyltransferase (peptide)
peptide: DYVI
modifications: not fully specified
[6]
  IC50 of inhibition of cysteine synthase activity (cysteine production; 3 mM OAS, 2 mM sodium sulfide): 7 µM
[7]
  IC50 of inhibition of cysteine synthase activity (cysteine production; 3 mM OAS, 2 mM sodium sulfide): 8 µM

B3: GSGI, Leishmania SAT C-terminal peptide (peptide)
peptide: GSGI
[5]
  IC50 of inhibition of cysteine synthase activity (cysteine production; 3 mM OAS, 2 mM sodium sulfide); single IC50 curve: < 2000 µM
[6]
  IC50 of inhibition of cysteine synthase activity (cysteine production; 3 mM OAS, 2 mM sodium sulfide); single IC50 curve: 1500 µM

B4: Leishmania major cysteine synthase (crystallised form, His tag cleaved) (enzyme)
chain: MAAPFDKSRNVAQSIDQLIGQTPALYLNKLNNTKAKVVLKMECENPMASVKDRLGFAIYDKAEKEGKLIPGKSVVVESSSGNTGVSLAHLGAIRGYKVIITMPESMSLERRCLLRIFGAEVILTPAALGMKGAVTMAKKIVTANPNAVLADQFATKYNALIHEETTGPEIWEQTNHNVDCFIAGVGTGGTLTGVARALKKMGSHARIVAVEPMESPVLSGGKPGAHKIQGIGPGFVPDVLDRSLIDEVFCVAGDDAIETALKLTRSDGVFCGFSGGANVYAALKIAERPEMEGKTIVTIIPSFGERYLSTALYRSVRDEVSSLPVVDASELQD
notes: Leishmania major cysteine synthase (EC 2.5.1.47); LmCS gene subcloned from pET21a+ into pET15bTEV; theoretical mass of one subunit 35.6 kDa; residues 3-213 and 241-333 (subunit A) and 4-214 and 241-333 (subunit B) are seen in the model; The pyridoxal phosphate cofactor was lost in the crystal; A fragment of gamma-poly-D-glutamic acid lies in the active site; also called LmCS; L. major CS; source: …
[8]
  stoichiometry N: 2

B5: DGSGI, Leishmania SAT C-terminal peptide (peptide)
peptide: DGSGI
[5]
  IC50 of inhibition of cysteine synthase activity (cysteine production; 3 mM OAS, 2 mM sodium sulfide); single IC50 curve: 170 µM
[6]
  IC50 of inhibition of cysteine synthase activity (cysteine production; 3 mM OAS, 2 mM sodium sulfide): 620 µM
